Settings: Liquid; for mass density: 298.15 K, 101.33 kPa, Vibrating tube method; for vapor or sublimation pressure: Closed cell (Static) method

CC(C)(C)O [2-methylpropan-2-ol]
Settings	mass density [kg/m3]	vapor or sublimation pressure [kPa]
–	781.04	–
330.9 K	–	34.9
331.1 K	–	35.3
340.6 K	–	54
350.6 K	–	82.6
360.1 K	–	121.2
369.5 K	–	171.4
378.5 K	–	232.1
387.7 K	–	310.6
396.7 K	–	406.4

CCC(C)O (configuration not stated) [butan-2-ol]
Settings	mass density [kg/m3]	vapor or sublimation pressure [kPa]
–	802.47	–
332.9 K	–	18
342.9 K	–	29.2
352.5 K	–	45
361.3 K	–	65
371.1 K	–	96
381.1 K	–	137.6
391.9 K	–	197.5
401.4 K	–	266.1
412 K	–	361.8
421.6 K	–	471.4

CCCCCO [pentan-1-ol]
Settings	mass density [kg/m3]	vapor or sublimation pressure [kPa]
–	811.04	–
333.1 K	–	3.1
344.8 K	–	6
354.4 K	–	10
362.4 K	–	14.8
371.2 K	–	21.9
381.6 K	–	34.1
391.5 K	–	50.2
401.7 K	–	73.1
411.4 K	–	102.1
422.4 K	–	145.2

Source: the NIST ThermoML archive (doi:10.1016/j.fluid.2013.09.029)
